Where “and” joins values, the source holds several entries; their conditions need not be identical. Equal values may be shown once. Entries after “also recorded” stand apart in the source; their conditions may differ.
What was measured:
[1] = system: KLHDC2, KLHDC3, KLHDC10, KLHDC1 E3 ligases; details: for inhibition of substrate ubiquitylation by Kelch family E3 ligases other than KLHDC2: ligand alone, Fig S5b, c
BRD3 = BRD3 (Homo sapiens, UniProt Q15059); test: Western blot of BRD3 levels after cellular dosing
BRD3, sequence (Q15059 whole entry): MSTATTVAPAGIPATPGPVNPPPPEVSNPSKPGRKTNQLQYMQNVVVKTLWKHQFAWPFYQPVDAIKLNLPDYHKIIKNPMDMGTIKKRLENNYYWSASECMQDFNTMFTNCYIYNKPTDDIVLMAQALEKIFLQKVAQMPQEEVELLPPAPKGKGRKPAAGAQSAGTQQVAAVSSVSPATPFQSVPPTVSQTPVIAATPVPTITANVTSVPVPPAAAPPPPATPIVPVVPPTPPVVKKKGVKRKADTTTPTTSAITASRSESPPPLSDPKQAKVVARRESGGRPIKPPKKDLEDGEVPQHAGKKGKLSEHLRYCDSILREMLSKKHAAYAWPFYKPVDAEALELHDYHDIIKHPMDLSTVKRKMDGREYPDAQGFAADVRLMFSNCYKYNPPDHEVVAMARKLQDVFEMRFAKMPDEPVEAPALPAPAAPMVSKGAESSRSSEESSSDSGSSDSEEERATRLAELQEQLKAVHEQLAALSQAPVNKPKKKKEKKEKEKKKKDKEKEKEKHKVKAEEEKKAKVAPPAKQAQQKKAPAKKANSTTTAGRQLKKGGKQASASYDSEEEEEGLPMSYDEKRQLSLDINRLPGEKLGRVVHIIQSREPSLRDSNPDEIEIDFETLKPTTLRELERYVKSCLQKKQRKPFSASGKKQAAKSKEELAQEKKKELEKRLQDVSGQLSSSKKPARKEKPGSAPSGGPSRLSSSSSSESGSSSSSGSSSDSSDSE

BRD2 = BRD2 (Homo sapiens, UniProt P25440); test: Western blot of BRD2 levels after cellular dosing
BRD2, sequence (P25440 whole entry): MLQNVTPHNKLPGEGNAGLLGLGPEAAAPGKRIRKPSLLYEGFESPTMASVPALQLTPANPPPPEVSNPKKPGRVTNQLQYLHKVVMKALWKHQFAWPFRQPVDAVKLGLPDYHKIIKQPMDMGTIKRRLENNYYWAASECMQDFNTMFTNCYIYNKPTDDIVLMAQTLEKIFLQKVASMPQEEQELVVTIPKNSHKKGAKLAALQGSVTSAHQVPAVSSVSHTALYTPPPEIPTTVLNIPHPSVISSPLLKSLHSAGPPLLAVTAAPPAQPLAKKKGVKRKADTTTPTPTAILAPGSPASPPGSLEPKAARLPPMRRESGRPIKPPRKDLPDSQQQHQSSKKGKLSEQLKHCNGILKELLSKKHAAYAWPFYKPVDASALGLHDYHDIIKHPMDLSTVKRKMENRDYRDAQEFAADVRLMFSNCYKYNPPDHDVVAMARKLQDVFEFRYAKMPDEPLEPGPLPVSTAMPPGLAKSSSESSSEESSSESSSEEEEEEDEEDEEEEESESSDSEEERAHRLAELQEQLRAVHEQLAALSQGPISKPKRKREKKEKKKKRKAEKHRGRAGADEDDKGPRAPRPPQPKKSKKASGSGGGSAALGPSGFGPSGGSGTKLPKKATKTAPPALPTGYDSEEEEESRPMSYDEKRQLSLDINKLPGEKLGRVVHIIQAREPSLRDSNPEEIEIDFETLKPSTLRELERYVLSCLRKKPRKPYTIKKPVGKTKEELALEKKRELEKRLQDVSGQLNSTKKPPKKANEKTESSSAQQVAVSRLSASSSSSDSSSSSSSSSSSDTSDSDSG

[2] = Fig S6b, MDA-MB468 Cells, 10 uM

Structure (SMILES)	selectivity towards KLHDC2 over other KLHDC family members ([1]; inhibition of SELK ubiquitylation)	inhibition of substrate ubiquitylation by Kelch family E3 ligases other than KLHDC2 [1]	BRD3 level, Western blot quantification (DMSO = 100) (BRD3; Fig 6b, KO/Rescue, 5 uM)	BRD3 level, Western blot quantification (DMSO = 100) (BRD3; Fig 6b, U2OS, 5 uM)	BRD3 level, Western blot quantification (DMSO = 100) (BRD3; Fig S6a, 293T cells, 2.5 uM)	BRD3 level, Western blot quantification (DMSO = 100) (BRD3; Fig S6a, 293T cells, 5 uM)	BRD3 level, Western blot quantification (DMSO = 100) (BRD3; [2])	BRD degradation activity in U2OS cells (BRD3; wild-type U2OS, 24 h dose, Fig 6b)	BRD2 level, Western blot quantification (DMSO = 100) (BRD2; Fig 6b, KO/Rescue, 5 uM)	BRD2 level, Western blot quantification (DMSO = 100) (BRD2; Fig 6b, U2OS, 5 uM)	BRD2 level, Western blot quantification (DMSO = 100) (BRD2; Fig S6a, 293T cells, 2.5 uM)	BRD2 level, Western blot quantification (DMSO = 100) (BRD2; Fig S6a, 293T cells, 5 uM)	BRD2 level, Western blot quantification (DMSO = 100) (BRD2; [2])
O=C(O)CNC(=O)Cc1csc(-c2ccc3ccccc3c2)n1 [SJ46411]	at least two orders-of-magnitude	does not show substantial effects; also recorded: largely inactive											
Cc1sc2c(c1C)C(c1ccc(Cl)cc1)=N[C@@H](CC(=O)N1CCN(CCOc3cccc4ccc(-c5nc(CC(=O)NCC(=O)O)cs5)cc34)CC1)c1nnc(C)n1-2 [SJ46421]		largely inactive	107.446 and 99.4453	111.974 and 117.271	78.3969 and 86.4266	73.4789 and 84.2355	61.0904 and 82.4759	inactive	112.267 and 101.949	136.72 and 118.225	72.5135 and 88.7213	75.5009 and 85.1412	62.2331 and 83.5917
